The record followed here is patent US20230073777A1, “CYCLIC-AMP RESPONSE ELEMENT BINDING PROTEIN (CBP) AND/OR ADENOVIRAL E1A BINDING PROTEIN OF 300 KDA (P300) DEGRADATION COMPOUNDS AND METHODS OF USE” (CULLGEN (SHANGHAI), INC., priority 2019, published 2023).

In test [1] the test system is LNCaP cells. Description: LNCaP cell viability assay (CellTiter-Glo). The class given is cell-based. The following applies: Homo sapiens, 72 h; LNCaP prostate cancer cell viability inhibition, 3 days, CellTiter-Glo (Table 3). An outline of the steps: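 LNCaP cells, 5000/well, exposed to compounds in 12-point 3-fold serial dilution (top 10 μM) for 3 days. Viability by CellTiter-Glo luminescence, normalized to untreated cells; IC50 by least-squares nonlinear regression.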
For orientation: ATP-based viability assays read luminescence as a measure of living cells.

Test [2] deals with P300 (Homo sapiens, UniProt Q09472). The experiment in a line: Immunoblotting of P300 protein levels in LNCaP or 22RV1 cells. The class given is cell-based. Set-up: LNCaP or 22RV1 cells that express CBP/P300 proteins were treated with GNE-781 or the bivalent compounds; endogenous in cells; host or cells: LNCaP (clone FGC) or 22RV1 cells. The conditions noted are these: read-out: Degradation (10 nM). An outline of the steps: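 LNCaP or 22RV1 cells treated with compounds for indicated hours, DMSO as negative control. RIPA lysates resolved by SDS-PAGE and immunoblotted for P300 or CBP, tubulin or vinculin as loading control; chemiluminescent bands quantitated.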

[3] abbreviates: percentage of inhibition of p300 at 10 nM (Table 3).

The structures appear in SMILES notation. Where two headings read alike, the source gives them in different places.

P300, sequence (Q09472 whole entry): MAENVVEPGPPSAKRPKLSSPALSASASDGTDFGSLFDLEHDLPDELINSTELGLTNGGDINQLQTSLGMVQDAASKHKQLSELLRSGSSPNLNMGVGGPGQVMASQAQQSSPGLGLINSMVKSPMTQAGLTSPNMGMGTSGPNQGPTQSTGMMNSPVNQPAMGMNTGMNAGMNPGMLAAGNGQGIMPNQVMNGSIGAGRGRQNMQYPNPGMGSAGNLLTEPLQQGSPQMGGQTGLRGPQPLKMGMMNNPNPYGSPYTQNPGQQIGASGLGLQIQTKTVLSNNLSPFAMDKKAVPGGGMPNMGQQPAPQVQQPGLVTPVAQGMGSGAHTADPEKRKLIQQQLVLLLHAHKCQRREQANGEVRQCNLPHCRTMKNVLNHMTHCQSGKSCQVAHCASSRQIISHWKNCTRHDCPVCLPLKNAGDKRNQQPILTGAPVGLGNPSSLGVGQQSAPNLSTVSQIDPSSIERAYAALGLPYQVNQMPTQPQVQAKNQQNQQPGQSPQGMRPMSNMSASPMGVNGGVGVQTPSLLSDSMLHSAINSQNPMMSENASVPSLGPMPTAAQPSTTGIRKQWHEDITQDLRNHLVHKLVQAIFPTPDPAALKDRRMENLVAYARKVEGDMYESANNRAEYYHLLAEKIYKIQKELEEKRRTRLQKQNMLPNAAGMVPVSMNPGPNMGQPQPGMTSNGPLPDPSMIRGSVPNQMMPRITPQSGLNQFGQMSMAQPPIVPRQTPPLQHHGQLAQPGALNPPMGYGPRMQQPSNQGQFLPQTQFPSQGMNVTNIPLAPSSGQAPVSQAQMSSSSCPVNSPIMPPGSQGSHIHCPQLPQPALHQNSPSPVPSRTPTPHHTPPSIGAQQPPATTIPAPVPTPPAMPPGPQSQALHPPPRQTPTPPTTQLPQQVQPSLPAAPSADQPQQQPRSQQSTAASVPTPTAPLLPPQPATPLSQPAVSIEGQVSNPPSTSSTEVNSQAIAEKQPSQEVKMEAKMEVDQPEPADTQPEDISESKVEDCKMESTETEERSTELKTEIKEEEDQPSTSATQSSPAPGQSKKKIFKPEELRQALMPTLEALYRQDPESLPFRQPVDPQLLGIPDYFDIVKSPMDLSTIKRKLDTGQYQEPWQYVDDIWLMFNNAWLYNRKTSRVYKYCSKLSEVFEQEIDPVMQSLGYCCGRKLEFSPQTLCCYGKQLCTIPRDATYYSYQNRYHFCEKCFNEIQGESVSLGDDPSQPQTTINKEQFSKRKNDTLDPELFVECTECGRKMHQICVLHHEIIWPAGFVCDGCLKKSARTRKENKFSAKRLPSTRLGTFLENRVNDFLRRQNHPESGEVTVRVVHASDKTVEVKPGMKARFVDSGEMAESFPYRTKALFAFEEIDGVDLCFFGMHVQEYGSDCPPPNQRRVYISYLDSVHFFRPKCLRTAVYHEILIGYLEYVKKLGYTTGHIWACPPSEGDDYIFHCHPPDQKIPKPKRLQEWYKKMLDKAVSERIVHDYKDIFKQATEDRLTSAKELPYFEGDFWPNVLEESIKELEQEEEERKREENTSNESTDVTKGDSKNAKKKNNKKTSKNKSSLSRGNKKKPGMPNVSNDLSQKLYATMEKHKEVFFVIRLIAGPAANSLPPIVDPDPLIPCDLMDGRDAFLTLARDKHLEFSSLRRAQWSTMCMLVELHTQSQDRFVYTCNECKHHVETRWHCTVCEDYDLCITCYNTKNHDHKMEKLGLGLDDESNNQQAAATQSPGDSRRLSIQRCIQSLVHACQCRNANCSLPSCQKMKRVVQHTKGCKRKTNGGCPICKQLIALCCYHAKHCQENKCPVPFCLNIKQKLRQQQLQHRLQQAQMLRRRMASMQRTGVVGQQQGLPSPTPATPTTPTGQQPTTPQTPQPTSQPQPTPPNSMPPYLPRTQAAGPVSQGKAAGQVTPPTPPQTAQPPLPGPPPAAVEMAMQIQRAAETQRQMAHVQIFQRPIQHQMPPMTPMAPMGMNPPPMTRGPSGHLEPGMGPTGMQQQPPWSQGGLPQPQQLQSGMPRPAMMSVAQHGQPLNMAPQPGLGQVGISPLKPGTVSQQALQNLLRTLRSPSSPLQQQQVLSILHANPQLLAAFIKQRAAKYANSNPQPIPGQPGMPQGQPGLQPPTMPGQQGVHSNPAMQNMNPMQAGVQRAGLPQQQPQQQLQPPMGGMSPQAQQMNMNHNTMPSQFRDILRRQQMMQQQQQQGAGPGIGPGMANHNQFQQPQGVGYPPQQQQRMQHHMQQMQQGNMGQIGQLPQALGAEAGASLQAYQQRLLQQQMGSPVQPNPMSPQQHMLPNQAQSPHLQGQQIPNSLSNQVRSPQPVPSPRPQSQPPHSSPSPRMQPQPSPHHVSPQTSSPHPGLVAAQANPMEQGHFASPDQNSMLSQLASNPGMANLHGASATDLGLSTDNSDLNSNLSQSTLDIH

As for `CNC(=O)N1CCc2c(c(N3CCCc4cc(-c5cnn(C)c5)c(C(F)F)cc43)nn2C2CCN(C(=O)CCCCC#Cc3cccc4c3C(=O)N(C3CCC(=O)NC3=O)C4=O)CC2)C1` (stereo not drawn) [P-092, 3-(7-(Difluoromethyl)-6-(1-methyl-1H-pyrazol-4-yl)-3,4-dihydroquinolin-1(2H)-yl)-1-(1-(7-(2-(2,6-dioxopiperidin-3-yl)-1,3-dioxoisoindolin-4-yl)hept-6-ynoyl)piperidin-4-yl)-N-methyl-1,4,6,7-tetrahydro-5H-pyrazolo[4,3-c]pyridine-5-carboxamide], the 50% inhibitory concentration (IC50) (as a rule, the concentration needed to halve the response being measured) in test [1] is 0.0565 µM. Further, the inhibition at 0.01 µM in test [2] (setting [3]) lay in the range of 20 to 50%.

Consider `CNC(=O)N1CCc2c(c(N3CCCc4cc(-c5cnn(C)c5)c(C(F)F)cc43)nn2C2CCN(C(=O)CCCCC#Cc3cccc4c3CN(C3CCC(=O)NC3=O)C4=O)CC2)C1` (stereo not drawn) [P-093, 3-(7-(difluoromethyl)-6-(1-methyl-1H-pyrazol-4-yl)-3,4-dihydroquinolin-1(2H)-yl)-1-(1-(7-(2-(2,6-dioxopiperidin-3-yl)-1-oxoisoindolin-4-yl)hept-6-ynoyl)piperidin-4-yl)-N-methyl-1,4,6,7-tetrahydro-5H-pyrazolo[4,3-c]pyridine-5-carboxamide], for which the half-inhibitory concentration (IC50) in test [1] worked out at 0.0252 µM. In addition, the inhibition at 0.01 µM in test [2] (setting [3]) is more than 80%.

Compound `CNC(=O)N1CCc2c(c(N3CCCc4cc(-c5cnn(C)c5)c(C(F)F)cc43)nn2C2CCN(C(=O)CCCCCNc3cccc4c3CN(C3CCC(=O)NC3=O)C4=O)CC2)C1` (stereo not drawn) [P-095, 3-(7-(Difluoromethyl)-6-(1-methyl-1H-pyrazol-4-yl)-3,4-dihydroquinolin-1(2H)-yl)-1-(1-(6-((2-(2,6-dioxopiperidin-3-yl)-1-oxoisoindolin-4-yl)amino)hexanoyl)piperidin-4-yl)-N-methyl-1,4,6,7-tetrahydro-5H-pyrazolo[4,3-c]pyridine-5-carboxamide] came in with an IC50 in test [1] of 0.0677 µM. For the same compound, the inhibition at 0.01 µM in test [2] (setting [3]) is 20 to 50%.

`CNC(=O)N1CCc2c(c(N3CCCc4cc(-c5cnn(C)c5)c(C(F)F)cc43)nn2C2CCN(C(=O)CCCCCNc3cccc4c3C(=O)N(C3CCC(=O)NC3=O)C4)CC2)C1` (stereo not drawn) [P-096, 3-(7-(difluoromethyl)-6-(1-methyl-1H-pyrazol-4-yl)-3,4-dihydroquinolin-1(2H)-yl)-1-(1-(6-((2-(2,6-dioxopiperidin-3-yl)-3-oxoisoindolin-4-yl)amino)hexanoyl)piperidin-4-yl)-N-methyl-1,4,6,7-tetrahydro-5H-pyrazolo[4,3-c]pyridine-5-carboxamide] displayed an IC50 in test [1] of 0.0266 µM. Besides, the inhibition at 0.01 µM in test [2] (setting [3]) was more than 80%.

`CNC(=O)N1CCc2c(c(N3CCCc4cc(-c5cnn(C)c5)c(C(F)F)cc43)nn2C2CCN(CCCCCCCc3cccc4c3C(=O)N(C3CCC(=O)NC3=O)C4=O)CC2)C1` (stereo not drawn) [P-097, 3-(7-(difluoromethyl)-6-(1-methyl-1H-pyrazol-4-yl)-3,4-dihydroquinolin-1(2H)-yl)-1-(1-(7-(2-(2,6-dioxopiperidin-3-yl)-1,3-dioxoisoindolin-4-yl)heptyl)piperidin-4-yl)-N-methyl-1,4,6,7-tetrahydro-5H-pyrazolo[4,3-c]pyridine-5-carboxamide] registered an IC50 in test [1] of 0.049 µM. For the same compound, in test [2] (setting [3]), the inhibition at 0.01 µM was more than 80%.

Compound `CNC(=O)N1CCc2c(c(N3CCCc4cc(-c5cnn(C)c5)c(C(F)F)cc43)nn2C2CCN(C(=O)CN3CCC(CNc4cccc5c4C(=O)N(C4CCC(=O)NC4=O)C5=O)CC3)CC2)C1` (stereo not drawn) [P-102] yielded a half-maximal inhibitory concentration (IC50) in test [1] of 0.0149 µM. Further, the inhibition at 0.01 µM in test [2] (setting [3]) lay in the range of 50 to 80%.

For the compound `CNC(=O)N1CCc2c(c(N3CCCc4cc(-c5cnn(C)c5)c(C(F)F)cc43)nn2C2CCN(C(=O)CN3CCC(CCc4cccc5c4C(=O)N(C4CCC(=O)NC4=O)C5=O)CC3)CC2)C1` (stereo not drawn) [P-104, 3-(7-(difluoromethyl)-6-(1-methyl-1H-pyrazol-4-yl)-3,4-dihydroquinolin-1(2H)-yl)-1-(1-(2-(4-(2-(2-(2,6-dioxopiperidin-3-yl)-1,3-dioxoisoindolin-4-yl)ethyl)piperidin-1-yl)acetyl)piperidin-4-yl)-N-methyl-1,4,6,7-tetrahydro-5H-pyrazolo[4,3-c]pyridine-5-carboxamide], the IC50 in test [1] turned out to be 0.0121 µM. Further, the inhibition at 0.01 µM in test [2] (setting [3]) was more than 80%.

In turn, `CNC(=O)N1CCc2c(c(N3CCCc4cc(-c5cnn(C)c5)c(C(F)F)cc43)nn2C2CCN(C(=O)CCCCCn3c(=O)n(C4CCC(=O)NC4=O)c4ccccc43)CC2)C1` (stereo not drawn) [P-105, 3-(7-(Difluoromethyl)-6-(1-methyl-1H-pyrazol-4-yl)-3,4-dihydroquinolin-1(2H)-yl)-1-(1-(6-(3-(2,6-dioxopiperidin-3-yl)-2-oxo-2,3-dihydro-1H-benzo[d]imidazol-1-yl)hexanoyl)piperidin-4-yl)-N-methyl-1,4,6,7-tetrahydro-5H-pyrazolo[4,3-c]pyridine-5-carboxamide] had an IC50 in test [1] of 0.0445 µM. For the same compound, the inhibition at 0.01 µM in test [2] (setting [3]) fell in the range of 50 to 80%.

In test [1], `CNC(=O)N1CCc2c(c(N3CCCc4cc(-c5cnn(C)c5)c(C(F)F)cc43)nn2C2CCN(C(=O)CCCCCCn3c(=O)n(C4CCC(=O)NC4=O)c4ccccc43)CC2)C1` (stereo not drawn) [P-106, 3-(7-(difluoromethyl)-6-(1-methyl-1H-pyrazol-4-yl)-3,4-dihydroquinolin-1(2H)-yl)-1-(1-(7-(3-(2,6-dioxopiperidin-3-yl)-2-oxo-2,3-dihydro-1H-benzo[d]imidazol-1-yl)heptanoyl)piperidin-4-yl)-N-methyl-1,4,6,7-tetrahydro-5H-pyrazolo[4,3-c]pyridine-5-carboxamide] returned a half-maximal inhibitory concentration (IC50) of 0.0242 µM. The inhibition at 0.01 µM in test [2] was in the range of 50 to 80%.

In test [1], `CC(=O)N1CCc2c(c(N3CCCc4cc(-c5cnn(C)c5)c(C(F)F)cc43)nn2C2CCN(C(=O)CCCCCn3c(=O)n(C4CCC(=O)NC4=O)c4ccccc43)CC2)C1` (stereo not drawn) [P-107, 3-(3-(6-(4-(5-Acetyl-3-(7-(difluoromethyl)-6-(1-methyl-1H-pyrazol-4-yl)-3,4-dihydroquinolin-1(2H)-yl)-4,5,6,7-tetrahydro-1H-pyrazolo[4,3-c]pyridin-1-yl)piperidin-1-yl)-6-oxohexyl)-2-oxo-2,3-dihydro-1H-benzo[d]imidazol-1-yl)piperidine-2,6-dione] returned an IC50 of 0.0204 µM. In test [2], the inhibition at 0.01 µM was in the range of 50 to 80%.

Compound `CC(=O)N1CCc2c(c(N3CCCc4cc(-c5cnn(C)c5)c(C(F)F)cc43)nn2C2CCN(C(=O)CCCCCCn3c(=O)n(C4CCC(=O)NC4=O)c4ccccc43)CC2)C1` (stereo not drawn) [P-108, 3-(3-(7-(4-(5-Acetyl-3-(7-(difluoromethyl)-6-(1-methyl-1H-pyrazol-4-yl)-3,4-dihydroquinolin-1(2H)-yl)-4,5,6,7-tetrahydro-1H-pyrazolo[4,3-c]pyridin-1-yl)piperidin-1-yl)-7-oxoheptyl)-2-oxo-2,3-dihydro-1H-benzo[d]imidazol-1-yl)piperidine-2,6-dione] returned an IC50 in test [1] of 0.0165 µM. Further, the inhibition at 0.01 µM in test [2] (setting [3]) was in the range of 50 to 80%.

Take `CNC(=O)N1CCc2c(c(N3CCCc4cc(-c5cnn(C)c5)c(C(F)F)cc43)nn2C2CCN(C(=O)CCCCCNc3cccc4c3n(C)c(=O)n4C3CCC(=O)NC3=O)CC2)C1` (stereo not drawn) [P-109, 3-(7-(difluoromethyl)-6-(1-methyl-1H-pyrazol-4-yl)-3,4-dihydroquinolin-1(2H)-yl)-1-(1-(6-((1-(2,6-dioxopiperidin-3-yl)-3-methyl-2-oxo-2,3-dihydro-1H-benzo[d]imidazol-4-yl)amino)hexanoyl)piperidin-4-yl)-N-methyl-1,4,6,7-tetrahydro-5H-pyrazolo[4,3-c]pyridine-5-carboxamide]: the half-maximal inhibitory concentration (IC50) in test [1] came out at 0.0129 µM. Also, the inhibition at 0.01 µM in test [2] (setting [3]) was more than 80%.

Take `CC(=O)N1CCc2c(c(N3CCCc4cc(-c5cnn(C)c5)c(C(F)F)cc43)nn2C2CCN(C(=O)CCCCCNc3cccc4c3n(C)c(=O)n4C3CCC(=O)NC3=O)CC2)C1` (stereo not drawn) [P-110, 3-(4-((6-(4-(5-acetyl-3-(7-(difluoromethyl)-6-(1-methyl-1H-pyrazol-4-yl)-3,4-dihydroquinolin-1(2H)-yl)-4,5,6,7-tetrahydro-1H-pyrazolo[4,3-c]pyridin-1-yl)piperidin-1-yl)-6-oxohexyl)amino)-3-methyl-2-oxo-2,3-dihydro-1H-benzo[d]imidazol-1-yl)piperidine-2,6-dione]: inhibition in test [1] was half-maximal at 0.0311 µM (IC50). The inhibition at 0.01 µM in test [2] (setting [3]) is more than 80%.

In test [1], `CC(=O)N1CCc2c(c(N3CCCc4cc(-c5cnn(C)c5)c(C(F)F)cc43)nn2C2CCN(C(=O)CCCCCCNc3cccc4c3n(C)c(=O)n4C3CCC(=O)NC3=O)CC2)C1` (stereo not drawn) [P-111, 3-(4-((7-(4-(5-acetyl-3-(7-(difluoromethyl)-6-(1-methyl-1H-pyrazol-4-yl)-3,4-dihydroquinolin-1(2H)-yl)-4,5,6,7-tetrahydro-1H-pyrazolo[4,3-c]pyridin-1-yl)piperidin-1-yl)-7-oxoheptyl)amino)-3-methyl-2-oxo-2,3-dihydro-1H-benzo[d]imidazol-1-yl)piperidine-2,6-dione] registered an IC50 of 0.0076 µM. Besides, the inhibition at 0.01 µM in test [2] (setting [3]) was more than 80%.

In turn, `CC(=O)N1CCc2c(c(N3CCCc4cc(-c5cnn(C)c5)c(C(F)F)cc43)nn2C2CCN(CCCCCCNc3cccc4c3C(=O)N(C3CCC(=O)NC3=O)C4=O)CC2)C1` (stereo not drawn) [P-112, 4-((6-(4-(5-acetyl-3-(7-(difluoromethyl)-6-(1-methyl-1H-pyrazol-4-yl)-3,4-dihydroquinolin-1(2H)-yl)-4,5,6,7-tetrahydro-1H-pyrazolo[4,3-c]pyridin-1-yl)piperidin-1-yl)hexyl)amino)-2-(2,6-dioxopiperidin-3-yl)isoindoline-1,3-dione] had an IC50 in test [1] of 0.0021 µM. Further, the inhibition at 0.01 µM in test [2] (setting [3]) was more than 80%.
